Laboratory results: ChEMBL document CHEMBL5247589, “Natural occurrence, bioactivity, and biosynthesis of triene-ansamycins” (Eur J Med Chem, 2022)
In brackets after ≈: the same amount, converted by molar mass.

How the values were obtained:
[1] = tested on: HeLa; assay: Antitumor activity against human HeLa cells assessed as cell growth inhibition incubated for 72 hrs by MTT assay; assay type: functional, cell-based
[2] = tested on: HeLa; assay: Antiproliferative activity against human HeLa cells incubated for 72 hrs by absorbance based assay; assay type: functional, cell-based
[3] = tested on: NCI-H1299; assay: Antiproliferative activity against human H1299 cells incubated for 72 hrs by absorbance based assay; assay type: functional, cell-based; conditions: NCI-H1299, 72 h
[4] = tested on: PANC-1; assay: Antitumor activity against human PANC-1; assay type: functional, cell-based; conditions: pooled result: one value given for 3 cell lines, strains, targets or settings
[5] = tested on: HeLa; assay: Antitumor activity against human HeLa cells; assay type: functional, cell-based
[6] = tested on: PANC-1; assay: Antitumor activity against human PANC-1 cells assessed as cell growth inhibition incubated for 48 hrs by CCK-8 assay; assay type: functional, cell-based; conditions: PANC-1, 48 h
[7] = tested on: SW1990; assay: Antitumor activity against human SW1990 cells assessed as cell growth inhibition incubated for 48 hrs by CCK-8 assay; assay type: functional, cell-based; conditions: SW1990, 48 h
[8] = tested on: L5178Y; assay: Cytotoxicity against mouse L5178Y; assay type: toxicity, cell-based
[9] = tested on: HeLa; assay: Antitumor activity against human HeLa cells assessed as cell growth inhibition incubated for 3 days; assay type: functional, cell-based; conditions: 72 h
[10] = tested on: MCF7; assay: Antitumor activity against human MCF7 cells assessed as cell growth inhibition incubated for 3 days; assay type: functional, cell-based; conditions: MCF7, 72 h
[11] = tested on: C-33-A; assay: Antitumor activity against human C33A cells assessed as cell growth inhibition incubated for 3 days; assay type: functional, cell-based; conditions: 72 h
[12] = tested on: COLO 201; assay: Antitumor activity against human COL0201 cells assessed as cell growth inhibition incubated for 3 days; assay type: functional, cell-based; conditions: COLO 201, 72 h
[13] = tested on: MCF7; assay: Antitumor activity against human MCF-7 incubated for 48 hrs by MTT assay; assay type: functional, cell-based; conditions: MCF7, 48 h
[14] = tested on: HepG2; assay: Antitumor activity against human HepG2 incubated for 48 hrs by MTT assay; assay type: functional, cell-based; conditions: HepG2, 48 h

SMILES: CO[C@H]1/C=C/C=C/C=C/C[C@H](OC(=O)[C@@H](C)NC(=O)C2CCCCC2)[C@H](C)[C@@H](O)/C(C)=C\CCC2=C(SC)C(=O)C=C(NC(=O)C1)C2=O
- IC50 [1]: 0.055 µM

SMILES: C/C1=C/CCc2c(O)c(cc3c2SCC(=O)N3)NC(=O)C[C@@H](O)/C=C/C=C/C=C/C[C@H](O)[C@H](C)[C@H]1O
- IC50 [2]: 10 µM
- IC50 [3]: > 10 µM

SMILES: CO[C@H]1/C=C/C=C/C=C/C[C@H](OC(=O)[C@@H](C)NC(=O)C2CCCCC2)[C@H](C)[C@@H](O)/C(C)=C\CCC2=CC(=O)C(SC)=C(NC(=O)C1)C2=O
- IC50 [1]: 0.1 µM

SMILES: CC[C@H](C)C(=O)N[C@H](C)C(=O)O[C@H]1C/C=C/C=C/C=C/[C@H](OC)CC(=O)Nc2cc(O)cc(c2)CC/C=C(/C)[C@H](O)[C@H]1C
- IC50 [4]: 0.34 µM

SMILES: CO[C@H]1/C=C/C=C/C=C/C[C@H](OC(=O)[C@@H](C)NC(=O)C2CCCCC2)[C@H](C)[C@@H](O)/C(C)=C\CCc2cc(O)c(SC)c(c2O)NC(=O)C1
- IC50 [5]: 0.015 µM

SMILES: CO[C@@H]1CC(=O)Nc2c(O)c3cc4c2[C@@H](/C=C/C=C/C[C@H](OC(=O)[C@@H](C)NC(=O)C2CCCCC2)[C@H](C)[C@@H](O)/C(C)=C\CC3)[C@H]1O4
- IC50 [6]: 4.73 µM
- IC50 [7]: 4.73 µM

SMILES: CO[C@@H]1CC(=O)Nc2c(O)c3cc4c2[C@H](/C=C/C=C/C[C@H](OC(=O)[C@@H](C)NC(=O)C2=CCCCC2)[C@H](C)[C@@H](O)/C(C)=C\CC3)[C@H]1O4
- IC50 [6]: > 10 µM
- IC50 [7]: > 10 µM

SMILES: CO[C@H]1/C=C/C=C/C=C/C[C@H](OC(=O)[C@@H](C)NC(=O)C2CCCC(O)C2)[C@H](C)[C@@H](O)/C(C)=C\CCc2cc(O)cc(c2O)NC(=O)C1 (some centres not stated)
- MIC [8]: 4.89 µM (≈ 3.2 µg/mL)

SMILES: CO[C@@H]1CC(=O)Nc2c(O)c3cc4c2[C@H](/C=C/C=C\C[C@H](OC(=O)[C@@H](C)NC(=O)C2CCCCC2)[C@H](C)[C@@H](O)/C(C)=C\CC3)[C@H]1O4
- IC50 [6]: 6.9 µM
- IC50 [7]: 6.9 µM

SMILES: CO[C@H]1/C=C/C=C/C=C/C[C@H](OC(=O)[C@@H](C)NC(=O)C2CCCCC2)[C@H](C)C(=O)/C(C)=C\CCC2=CC(=O)C=C(NC(=O)C1)C2=O
- IC50 [1]: > 10 µM

SMILES: CO[C@H]1/C=C/C=C/C=C/C[C@H](OC(=O)[C@@H](C)NC(=O)C2CCCCC2)[C@H](C)[C@@H](O)/C(C)=C\CCc2c(O)c(cc(O)c2SC)NC(=O)C1
- IC50 [1]: 0.2 µM

SMILES: CO[C@H]1/C=C/C=C/C=C/C[C@H](O)[C@H](C)[C@@H](O)/C(C)=C\CCC2=CC(=O)C=C(NC(=O)C1)C2=O
- MIC [8]: > 10 µM

SMILES: C/C1=C/CCc2cc(O)cc(c2)NC(=O)C[C@@H](O)/C=C/C=C/C=C/C[C@H](O)[C@H](C)[C@H]1O
- IC50 [2]: 10 µM
- IC50 [3]: > 10 µM

SMILES: CO[C@H]1/C=C/C=C/C=C/C[C@@H]2O[C@@](C)([C@H](O)[C@H]2C)[C@H]2CCC3=C(S2)C(=O)C=C(NC(=O)C1)C3=O
- IC50 [2]: 10 µM
- IC50 [3]: > 10 µM

SMILES: CO[C@H]1/C=C/C=C/C=C/C[C@H](OC(=O)[C@@H](C)NC(=O)C2CCCCC2)[C@H](C)[C@@H](O)/C(C)=C\CCc2c(O)c(cc3c2SCC(=O)N3)NC(=O)C1
- IC50 [9]: 0.018 µM
- IC50 [10]: 0.018 µM
- IC50 [11]: 0.018 µM
- IC50 [12]: 0.018 µM

SMILES: CO[C@H]1/C=C/C=C/C=C/C[C@H](OC(=O)[C@@H](C)NC(=O)C2CCCC2)[C@H](C)[C@@H](O)/C(C)=C\CCc2cc(O)cc(c2)NC(=O)C1
- IC50 [13]: ≥ 6.81 µM
- IC50 [14]: ≥ 6.81 µM

SMILES: CO[C@H]1/C=C/C=C/C=C/C[C@H](O)[C@H](C)[C@@H](O)/C(C)=C\CCc2cc(O)cc(c2O)NC(=O)C1
- MIC [8]: 7 µM (≈ 3.2 µg/mL)

SMILES: CO[C@H]1/C=C/C=C/C=C/C[C@H](OC(=O)[C@@H](C)NC(=O)C2=CCCCC2)[C@H](C)[C@@H](O)/C(C)=C\CCc2c(O)c(cc3c2SCC(=O)N3)NC(=O)C1
- IC50 [9]: 0.028 µM
- IC50 [10]: 0.028 µM
- IC50 [11]: 0.028 µM
- IC50 [12]: 0.028 µM

SMILES: C/C1=C/CCc2cc(O)cc(c2)NC(=O)C[C@@H](O)/C=C/C=C/C=C/C[C@H](O)C[C@H]1O
- IC50 [1]: > 10 µM

SMILES: CO[C@H]1/C=C/C=C/C=C/C[C@H](OC(=O)[C@@H](C)NC(=O)C2CCCCC2)[C@H](C)[C@@H](O)/C=C\CCc2cc(O)cc(c2)NC(=O)C1
- IC50 [1]: 0.86 µM

SMILES: CO[C@H]1/C=C/C=C/C=C/C[C@H](OC(=O)[C@@H](C)NC(=O)C2CC2)[C@H](C)[C@@H](O)/C(C)=C\CCc2cc(O)cc(c2)NC(=O)C1
- IC50 [13]: > 10 µM
- IC50 [14]: > 10 µM

SMILES: CO[C@@H]1CC(=O)Nc2c(O)c3cc4c2[C@H](/C=C/C=C/C[C@H](OC(=O)[C@@H](C)NC(=O)CCC(C)C)[C@H](C)[C@@H](O)/C(C)=C\CC3)[C@H]1O4
- IC50 [6]: > 10 µM
- IC50 [7]: > 10 µM
